Consider 2 compounds from patent US20230404998A1, “Combination Therapies for Treating Cancer” (ASCENTAGE PHARMA (SUZHOU) CO., LTD., priority 2020, published 2023).

Marks after values point to notes of the source that are not given here.

Holding throughout (set-up): species or system mouse
Details in all cases: ABL001 60 mg/kg, Ponatinib 20 mg/kg, HQP1351 20 mg/kg

Test [1] concerns T315I orthotopic tumor model. The experiment in a line: In vivo efficacy, T315I orthotopic tumor model. On the procedure:
(§1) In vivo efficacy was evaluated using the syngeneic mouse model derived from BaF3 cells with T315I and/or compound mutations. Tumor models were established by intravenously injecting tumor cells (1×10^5/mouse) into the caudal vein under sterile conditions. Mice were randomized into control and treatment groups with 8-10 mice per group and start the treatment from the second day post inoculation. The animal body weights were measured twice a week. The antitumor activity curves of test articles were plotted with the treatment time (day) on the X-axis, and corresponding survival rate on the Y-axis. A Log-rank (Mental-cox) test was employed to analyze the statistical significance of any difference between the treatment group and the control group. Prism version 7 (GraphPad Software Inc., San Diego, CA) was used for all statistical analysis and for graphic presentation.

Test [2] has as its system Y253H/T315I orthotopic tumor model. The experiment in a line: In vivo efficacy, Y253H/T315I orthotopic tumor model. On the procedure:
as §1

Test [3] has as its system F317L/T315I orthotopic tumor model. The experiment in a line: In vivo efficacy, F317L/T315I orthotopic tumor model. The protocol:
as §1

Test [4] concerns E255V/T315I orthotopic tumor model. Put plainly: In vivo efficacy, E255V/T315I orthotopic tumor model. The protocol: as §1

In the case of `O=C(Nc1ccc(OC(F)(F)Cl)cc1)c1cnc(N2CC[C@@H](O)C2)c(-c2cc[nH]n2)c1` [ABL001, asciminib], in test [1], the Median survival was 24.5****, the “Survival prolongation (%)” value was 16.67% and the “Survive/Total @ D43” value is 0/10. In addition, in test [2], the Median survival is recorded as 21.0***, the “Survival prolongation (%)” value is on record as 23.53% and the “Survive/Total @ 24” value is listed as 0/8. For the same compound, in test [3], the Median survival is recorded as 18.0, the “Survival prolongation (%)” value was found to be 2.86% and the “Survive/Total @ 24” value is given as 0/8. Also, in test [4], the Median survival is on record as 27.0****, the “Survival prolongation (%)” value is on record as 28.57% and the “Survive/Total @ D26” value is on record as 0/10.
Take `Cc1ccc(C(=O)Nc2ccc(CN3CCN(C)CC3)c(C(F)(F)F)c2)cc1C#Cc1cnc2cccnn12` [Ponatinib]: in test [1], the Median survival is reported as 27.0****, the “Survival prolongation (%)” value was 28.57% and the “Survive/Total @ D43” value was 0/10. In addition, in test [2], the Median survival is recorded as 20.0**, the “Survival prolongation (%)” value worked out at 17.65% and the “Survive/Total @ 24” value is 0/8. Besides, in test [3], the Median survival is recorded as 27.0****, the “Survival prolongation (%)” value was 54.29% and the “Survive/Total @ 24” value is reported as 1/8. In test [4], the Median survival is 24.5****, the “Survival prolongation (%)” value is 16.67% and the “Survive/Total @ D26” value is recorded as 0/10.
